Source: patent publication EP1352247B1, “ASSAY METHODS FOR IDENTIFYING COMPOUNDS WHICH MAY PROTECT STRATIFIED SQUAMOUS EPITHELIUM AGAINST DAMAGE BY NOXIOUS SUBSTANCES” (The Administrators of the Tulane Educational Fund, priority 2000, dated 2002)
Blank lines part the entries; values can stand above or below the molecule they belong to.

What was measured:
[1] = tested on: esophageal epithelium; details: cited from earlier work
[2] = target: T1, extracellular domain of human Uvomorulin/E-Cadherin (Homo sapiens, UniProt P12830); assay: Human E-cadherin EIA kit: competition with Mab binding to the extracellular domain of E-cadherin; details: for % Binding: Mab binding vs vehicle control = 100
T1 construct: the approximately 80 kD extracellular domain of Uvomorulin/E-Cadherin provided in the E-cadherin EIA kit; purchased Zymed Laboratories, San Francisco, CA
T1 sequence (P12830 155-709 limits assumed): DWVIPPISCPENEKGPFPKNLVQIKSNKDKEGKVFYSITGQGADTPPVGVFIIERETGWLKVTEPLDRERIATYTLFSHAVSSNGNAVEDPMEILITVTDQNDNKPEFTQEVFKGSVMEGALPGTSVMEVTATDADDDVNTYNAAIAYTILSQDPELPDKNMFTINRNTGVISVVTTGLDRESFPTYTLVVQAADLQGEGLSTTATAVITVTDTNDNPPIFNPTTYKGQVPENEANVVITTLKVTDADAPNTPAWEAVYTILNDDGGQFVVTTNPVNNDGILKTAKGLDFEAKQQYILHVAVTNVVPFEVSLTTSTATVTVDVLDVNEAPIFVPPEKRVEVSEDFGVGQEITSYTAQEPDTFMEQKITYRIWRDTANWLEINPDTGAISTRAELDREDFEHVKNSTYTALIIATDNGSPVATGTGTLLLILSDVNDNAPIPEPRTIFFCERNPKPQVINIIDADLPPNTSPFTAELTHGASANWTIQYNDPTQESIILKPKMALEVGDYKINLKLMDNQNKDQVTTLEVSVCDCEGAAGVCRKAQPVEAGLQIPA
Description: The kit enables the antigen to be exposed to agents or antibodies prior to exposure to the standard Mab to the extracellular domain of Uvomorulin/E-cadherin. The ability of the agent or antibody to block the binding of the Mab to the extracellular domain of Uvomorulin/E-cadherin can then be used to determine if competition for binding sites on the antigen has occurred. Comparative binding is based on the quantity of binding observed when the Mab to Uvomorulin/E-cadherin is placed in contact with antigen in the absence of prior exposure to test agent or antibody. The experimental control for test agents is vehicle (normal Ringer solution) and for monoclonal or polyclonal antibodies is an equivalent amount of nonspecific immune serum globulin (IgG). The quantity of binding of the Mab to Uvomorulin/E-cadherin to antigen in the absence of test agent or test antibody is labeled as control and whose value is normalized to 100%.
The Human E-cadherin EIA kit (Zymed Laboratories, San Francisco, CA) was used as in the method described in Example 5 to determine binding of test compounds, SITS, SOS, CDDD-1192, CDDD-1193 and 1,3-benzene disulfonic acid (1,3-BDSA) to the approximately 80 kD extracellular domain of Uvomorulin/E-Cadherin provided in the E-cadherin EIA kit. This was done by adding the extracellular domain of human Uvomorulin/E-Cadherin to a solution with varying concentrations of the compounds in the nanomolar to millimolar range or with vehicle (control, normal Ringer solution) for […]. Following incubation for 2 hrs, the solution is added to a solid phase microtiter plate, provided in the EIA kit, to which a mouse monoclonal anti-human Uvomorulin/E-cadherin antibody (Zymed Laboratories, San Francisco, CA) is bound. This permits antigen with epitopes unoccupied by test compound to bind to the plate. After washing the plate with Tris buffer containing 0.1 % Tween-20 (Promega, Madison, Wisconsin) and 5 mM calcium chloride, the second mouse monoclonal anti-human Uvomorulin/E-cadherin antibody labeled with peroxidase is used to tag the bound antigen. After an additional incubation for 1 hr and washing with Tris buffer, the peroxidase is detected with substrate (hydrogen peroxide and tetramethyl-benzidine in buffered solution, as included in the EIA test kit) by incubating for 15 min at room temperature and stopping of the reaction with 1N […]. […] The amount of Uvomorulin/E-cadherin is quantitated by measuring absorbance at 450 nm within an hour following development using an EIA plate reader (Vmax Plate Reader, Molecular Devices, Sunnyvale, CA). The degree of binding of a compound to the extracellular domain of Uvomorulin/E-cadherin is determined by the reduction in antigen detection in the plate exposed to test compound compared to that for the control plate (100%) where no compound was present (Table 2).

[3] = tested on: rabbit esophageal epithelium
Description: Sections of rabbit esophageal epithelium, mounted in Ussing chambers and stabilized for 45 min, were exposed both luminally and serosally to calcium-free solution containing EDTA, 3 mM.
Sections of rabbit esophageal epithelium were mounted in Ussing chambers and exposed luminally to trypsin, 0.01%, in the presence or absence of a calcium-free bathing solution.
Sections of rabbit esophageal epithelium were mounted in Ussing chambers and exposed luminally to either SITS, 4 mM, or vehicle (Ringer) as control for 30 min.

[4] = tested on: rabbit esophageal epithelium; assay: Junctional resealing (recovery of R after calcium restoration or return to isoosmolality) in Ussing chambers; assay type: cell-based; details: luminal 4 mM for 30 min and during calcium-free period; after restoration of calcium (0 mM SITS), n=3
Description: When calcium-containing (normal Ringer) solution was restored to the bathing solutions after 1, 2, or 4 hrs of calcium-free exposure, there was a progressive return of R toward initial baseline values, with complete reversibility observed for tissue exposed to calcium-free solution for 1 hr and 2 hr exposures and an 80% recovery in R for tissue exposed to calcium-free for 4 hrs within 1 hr of restoring calcium to the baths.
Sections of rabbit esophageal epithelium prepared as in Example 1 were exposed luminally and serosally to a calcium-free solution containing 3 mM EDTA to open the junctions as shown by the progressive decline in R to 60±4% and 65±4% of initial R for experimental and control tissues, respectively, by 2 hrs (n = 8 for each group, p > 0.05). Tissues were then treated luminally for 20 min with either 10 µg/ml of a monoclonal antibody (Mab) to Uvomorulin/E-cadherin (Sigma Chemical, St. Louis, MO) or, as control, to 10 µg/ml of nonspecific immune serum globulin (IgG). Following exposure to Mab or IgG, a calcium-containing (normal Ringer) solution was restored to the bathing solutions and the recovery of R monitored over time.
The intercellular junctions of stratified squamous epithelium can also be opened by exposure to hypertonic saline. […]

binding to the extracellular domain of Uvomorulin/E-cadherin / inhibition of Mab binding (in words) [2]: dose-dependently binds
% Binding ([2]; agent 4 mM): 83±0.3 %
% Binding ([2]; agent 10 mM): 76±0.3 %
Structure (SMILES): O=S(=O)(O)OC[C@H]1O[C@@](COS(=O)(=O)O)(O[C@H]2O[C@H](COS(=O)(=O)O)[C@@H](OS(=O)(=O)O)[C@H](OS(=O)(=O)O)[C@H]2OS(=O)(=O)O)[C@@H](OS(=O)(=O)O)[C@@H]1OS(=O)(=O)O [SOS, sucrose octasulfate]
protection against acid-induced injury, reversibility [1]: irreversibly protect

Structure (SMILES): O=S(=O)(O)c1cccc(S(=O)(=O)O)c1 [1,3 BDSA, 1,3-benzene disulfonic acid]
effect against acid injury ([1]; 4 mM, as shown in U.S. Patent No. 5,189,056 and 5,374,537): ineffective against acid injury
% Binding ([2]; agent 4 mM): 104±3%

% Binding ([2]; agent 0.4 uM): 103±6%
% Binding ([2]; agent 4 mM): 77±13 %
Structure (SMILES): O=S(=O)(O)OCC(OS(=O)(=O)O)C(Oc1ccccc1)c1ccc(N=C=S)cc1 (centres unmarked) [CDDD-1192, disodium 3-(4-isothiocyanatophenyl)-3 phenoxypropane-1,2-disulfate]

Structure (SMILES): O=C(O)CN(CCN(CC(=O)O)CC(=O)O)CC(=O)O [EDTA]
effect on R ([3]; 3 mM alone, over the described time frame (up to 4 hrs)): no effect on R

Structure (SMILES): CC(=O)Nc1ccc(C=Cc2ccc(N=C=S)cc2S(=O)(=O)O)c(S(=O)(=O)O)c1 [SITS, 4-acetamido-4'-isothiocyano-2,2'-stilbene disulfonate]
R declined to ([3]; calcium-free solution (3 mM EDTA) with 4 mM SITS, over 2 hr): 68±3%
recovery of R [4]: 75±3%
% Binding ([2]; agent 40 uM): 77±3 %
% Binding ([2]; agent 4 mM): 26±3 %
% Binding ([2]; agent 8 mM): 20±3 %

Structure (SMILES): O=S(=O)(O)OCC(OS(=O)(=O)O)C(Oc1ccc(N=C=S)cc1)c1ccc(N=C=S)cc1 (centres unmarked) [CDDD-1193, disodium 3-(4-isothiocyanatophenoxy)-3-(4-isothiocyanatophenyl)propane-1,2-disulfate]
% Binding ([2]; agent 40 nM): 110±6%
% Binding ([2]; agent 40 uM): 83±3 %
% Binding ([2]; agent 4 mM): 38±0.75 %
